Data on 14 molecules can be found in ChEMBL document CHEMBL1139701, “A bioisosteric approach to the discovery of indole carbinol androgen receptor ligands” (Bioorg Med Chem Lett, 2006).

The target of experiment [1] is T1, Androgen receptor (Rattus norvegicus, UniProt P15207).
T1 sequence (P15207 whole entry): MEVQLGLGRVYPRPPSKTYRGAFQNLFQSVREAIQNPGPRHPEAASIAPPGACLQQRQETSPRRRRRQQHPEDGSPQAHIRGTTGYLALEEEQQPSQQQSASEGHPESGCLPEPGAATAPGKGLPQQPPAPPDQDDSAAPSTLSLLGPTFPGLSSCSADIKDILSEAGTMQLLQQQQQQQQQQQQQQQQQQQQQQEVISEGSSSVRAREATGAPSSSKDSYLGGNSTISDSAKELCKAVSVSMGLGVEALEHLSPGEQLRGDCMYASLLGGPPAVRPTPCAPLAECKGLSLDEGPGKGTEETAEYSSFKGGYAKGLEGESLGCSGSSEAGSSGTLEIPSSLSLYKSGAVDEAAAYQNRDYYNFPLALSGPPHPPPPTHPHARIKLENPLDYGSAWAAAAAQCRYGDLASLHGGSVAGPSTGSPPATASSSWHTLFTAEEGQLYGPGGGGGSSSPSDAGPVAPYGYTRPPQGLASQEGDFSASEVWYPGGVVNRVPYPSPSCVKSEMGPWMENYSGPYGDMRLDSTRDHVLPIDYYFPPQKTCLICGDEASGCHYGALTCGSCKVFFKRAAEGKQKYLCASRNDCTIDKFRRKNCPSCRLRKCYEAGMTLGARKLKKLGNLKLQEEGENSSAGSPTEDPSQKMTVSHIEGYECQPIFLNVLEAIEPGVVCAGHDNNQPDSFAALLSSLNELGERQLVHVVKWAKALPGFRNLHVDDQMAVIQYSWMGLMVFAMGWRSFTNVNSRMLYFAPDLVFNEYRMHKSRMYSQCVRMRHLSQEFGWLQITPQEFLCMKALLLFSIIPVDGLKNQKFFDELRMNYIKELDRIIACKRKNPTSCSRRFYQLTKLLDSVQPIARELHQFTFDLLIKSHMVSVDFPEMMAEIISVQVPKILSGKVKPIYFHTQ
As to the kind of experiment: Displacement of [3H]R1881 from rat androgen receptor. For orientation: Displacement assays read how much labelled ligand stays bound in the presence of the test substance.

Experiment [2] deals with T2, Androgen receptor (Rattus norvegicus) (UniProt P15207).
T2 sequence (whole entry): T1 sequence (P15207 whole entry)
Kind of experiment: Displacement of [3H]R1881 from rat androgen receptor at 30 uM relative to control.

The IC50 is the midpoint of a concentration-inhibition curve. A higher IC50 goes with weaker potency in that assay. As usually defined, the inhibition is the percentage by which the read-out fell short of the control. Read a high inhibition as a response far below the control.

In experiment [1], `CC(O)(COC(=O)c1ccccc1C(F)(F)F)c1cc2cc(NC(=O)C(F)(F)F)c(C(F)(F)F)cc2[nH]1` (centres undefined) showed an IC50 of 150 nM.
On the same count and under the same terms, to `CN(C)c1ccc(C(=O)OCC(C)(O)c2cc3cc([N+](=O)[O-])c(C(F)(F)F)cc3[nH]2)cc1` (centres undefined) belongs 2600 nM; to `CC(O)(CSc1ccc(Cl)cc1)c1cc2cc(Cl)c(C(F)(F)F)cc2[nH]1` (centres undefined), 180 nM.
In experiment [2], `CC(O)(CSc1ccc(Cl)cc1)c1cc2ccccc2[nH]1` (centres undefined) displayed an inhibition of less than 50%.
`CC(O)(COC(=O)c1ccc([N+](=O)[O-])cc1)c1cc2cc([N+](=O)[O-])c(C(F)(F)F)cc2[nH]1` (centres undefined) returned an IC50 in experiment [1] of 1600 nM.
On the same count and under the same terms, next, `Cc1ccc(C(=O)OCC(C)(O)c2cc3cc([N+](=O)[O-])c(C(F)(F)F)cc3[nH]2)cc1` (centres undefined): 3000 nM; `CC(O)(CS(=O)(=O)c1ccc(F)cc1)c1cc2cc(C#N)c(C(F)(F)F)cc2[nH]1` (centres undefined): more than 6900 nM; `CC(O)(COC(=O)c1ccccc1)c1cc2cc(C#N)c(C(F)(F)F)cc2[nH]1` (centres undefined): 480 nM.
For the molecule `CC(O)(CSc1ccccc1)c1cc2cc(Cl)c(C(F)(F)F)cc2[nH]1` (centres undefined), the IC50 in experiment [1] is 220 nM.
On to `COc1ccc(C(=O)OCC(C)(O)c2cc3cc([N+](=O)[O-])c(C(F)(F)F)cc3[nH]2)cc1` (centres undefined), for which the IC50 in experiment [1] came to 6400 nM.
The molecule `COC(=O)c1ccc2[nH]c(C(C)(O)CSc3ccc(Cl)cc3)cc2c1` (centres undefined) displayed an inhibition in experiment [2] of less than 50%.
Molecule `CC(C)(C)c1ccc(C(=O)OCC(C)(O)c2cc3cc([N+](=O)[O-])c(C(F)(F)F)cc3[nH]2)cc1` (centres undefined) gave an IC50 in experiment [1] of 3600 nM.
Still for that read-out and setting: to `CC(O)(CSc1ccc(Cl)c(Cl)c1)c1cc2cc([N+](=O)[O-])c(C(F)(F)F)cc2[nH]1` (centres undefined) belongs 1000 nM; to `CC(O)(COC(=O)c1ccc(F)cc1)c1cc2cc(C#N)c(C(F)(F)F)cc2[nH]1` (centres undefined), 1200 nM.
